The record followed here is patent US20250101042A1, “KRAS G12D MODULATING COMPOUNDS” (Gilead Sciences, Inc., priority 2023, published 2025).

What is called EC50 is the concentration giving half of the maximal effect. Read a low EC50 as an effect from little substance. Broadly, the IC50 is the midpoint of a concentration-inhibition curve. Lower therefore signals higher potency.

One assay has as its system GP2D (KRAS G12D) cells. Briefly: 2D Cell Viability Assay (CellTiter-Glo). The format is cell-based. The settings on record: GP2d, 96 h, 4 days, CellTiter-Glo luminescence. The protocol:
Example B. 2D Cell Viability Assay
Compounds were tested in a 384-well format for their ability to inhibit the viability of GP2D (KRAS G12D) cells in 2D assays. Compounds were serially diluted (1:3) in DMSO. The LabCyte ECHO Acoustic dispenser system was used to pre-spot assay plates with 200 nL of test molecule per well. 1000 cells/well (40 μL volume per well) in RPMI medium with 10% FBS, and Penicillin-Streptomycin-Glutamine were plated in pre-spotted 384-well plates (Greiner, Catalog #781076) on the BioTEK EL406 liquid dispenser with a 5 μL dispensing cassette (BioTek 7170011). The plates were incubated at 37° C., 5% CO2 for 4 days before addition of CellTiter-Glo (CTG) reagent and measurement of luminescence signal. EC50 values were defined as the compound concentration that causes a 50% decrease in luminescence signal and were calculated using a sigmoidal dose-response model to generate curve fits.
Background: ATP-based viability assays read luminescence as a measure of living cells.

A further assay deals with GDP-loaded KRAS G12D (Homo sapiens, UniProt P01116, G12D). Briefly: KRAS G12D (GDP) Biochemical Assay (TR-FRET probe displacement). It is filed as binding. The conditions noted are these: 0.5 nM enzyme, 2 hours at room temperature. The protocol: Example A. KRAS G12D (GDP) Biochemical Assay
GDP-loaded KRAS G12D, sequence (P01116 1-188 isoform P01116-2 G12D): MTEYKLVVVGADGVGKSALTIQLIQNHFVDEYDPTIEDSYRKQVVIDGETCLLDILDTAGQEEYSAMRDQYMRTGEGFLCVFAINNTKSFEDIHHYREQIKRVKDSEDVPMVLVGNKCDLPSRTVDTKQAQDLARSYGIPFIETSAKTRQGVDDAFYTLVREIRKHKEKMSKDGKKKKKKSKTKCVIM
Compounds were tested for binding to GDP-loaded KRAS G12D in a 384-well assay format using a TR-FRET probe displacement assay in buffer consisting of 50 mM Hepes (pH 7.4), 150 mM NaCl, 5 mM MgCl2 and 0.005% Tween-20. […] Compounds were serially diluted (1:3) in DMSO. The LabCyte ECHO Acoustic dispenser system was used to pre-spot the assay plates (384-well Non-Binding Surface plates, Corning, Catalog #3824) with 50 nL of compound. The compounds were pre-incubated with 5 μL of 2× final enzyme concentration for 30 minutes before adding 5 μL of 2× final concentration of Eu-streptavidin and TR-FRET probe (10 μL final reaction volume). The plates were incubated at room temperature for 2 hours before measuring TR-FRET ratio on the Envision plate reader. IC50 values were defined as the compound concentration that causes a 50% decrease in TR-FRET ratio and were calculated using a sigmoidal dose-response model to generate curve fits.
(In general: TR-FRET usually uses a lanthanide donor and a delayed reading to cut background.)

On to `Cc1cc(N)nc(-c2nc3c4c(nc(OC[C@@]56CCCN5C[C@H](F)C6)nc4c2F)N2C[C@H]4CC[C@H](N4)[C@H]2C[C@H](C)C3)c1C(F)(F)F` [Example 18, 6-((5S,6aR,7S,10R)-1-fluoro-13-(((2R,7aS)-2-fluorotetrahydro-1H-pyrrolizin-7a(5H)-yl)methoxy)-5-methyl-5,6,6a,7,8,9,10,11-octahydro-4H-3,11a,12,14,15-pentaaza-7,10-methanocyclohepta[4,5]cycloocta[1,2,3-de]naphthalen-2-yl)-4-methyl-5-(trifluoromethyl)pyridin-2-amine], for which the EC50 in the assay with GP2D (KRAS G12D) cells is more than 100 nM. Besides, the IC50 on GDP-loaded KRAS G12D worked out at 83 nM.
Consider `Cc1cc(N)nc(-c2c(F)c3c4c(nc(OC[C@@]56CCCN5C[C@H](F)C6)nc4c2F)N2C[C@H]4CC[C@H](N4)[C@H]2CC3)c1C(F)(F)F` [Example 19, 6-((1S,4R,14aR)-10,12-difluoro-8-(((2R,7aS)-2-fluorotetrahydro-1H-pyrrolizin-7a(5H)-yl)methoxy)-1,2,3,4,5,13,14,14a-octahydro-1,4-epiminoazepino[1′,2′:1,7]azepino[2,3,4-de]quinazolin-11-yl)-4-methyl-5-(trifluoromethyl)pyridin-2-amine], for which a half-maximal effect with GP2D (KRAS G12D) cells (EC50) was put at 3.3 nM. The molecule further displayed an IC50 at GDP-loaded KRAS G12D of 0.18 nM.
As for `Nc1nc2c(F)ccc(-c3nc4c5c(nc(OC[C@@]67CCCN6C[C@H](F)C7)nc5c3F)N3C[C@H]5CC[C@H](N5)[C@H]3CC4)c2s1` [Example 20, 4-fluoro-7-((5aR,6S,9R)-1-fluoro-12-(((2R,7aS)-2-fluorotetrahydro-1H-pyrrolizin-7a(5H)-yl)methoxy)-4,5,5a,6,7,8,9,10-octahydro-3,10a,11,13,14-pentaaza-6,9-methanonaphtho[1,8-ab]heptalen-2-yl)benzo[d]thiazol-2-amine], the EC50 in the assay on GP2D (KRAS G12D) cells is more than 100 nM. In addition, on GDP-loaded KRAS G12D, the IC50 came out at 8.2 nM.
For the molecule `C#Cc1c(F)ccc2cc(N)nc(-c3c(Cl)c4c5c(nc(OC[C@@]67CCCN6C[C@H](F)C7)nc5c3F)N3C[C@H]5CC[C@H](N5)[C@H]3CC4)c12` [Example 23, 1-((1S,4R,14aR)-12-chloro-10-fluoro-8-(((2R,7aS)-2-fluorotetrahydro-1H-pyrrolizin-7a(5H)-yl)methoxy)-1,2,3,4,5,13,14,14a-octahydro-1,4-epiminoazepino[1′,2′:1,7]azepino[2,3,4-de]quinazolin-11-yl)-8-ethynyl-7-fluoroisoquinolin-3-amine], in the assay with GP2D (KRAS G12D) cells, it took 6.1 nM to reach a half-maximal effect (EC50). For the same molecule, at GDP-loaded KRAS G12D, the IC50 is 0.16 nM.
For `Nc1cc(Cl)c(C(F)F)c(-c2nc3c4c(nc(OC[C@@]56CCCN5C[C@H](F)C6)nc4c2F)N2C[C@H]4CC[C@H](N4)[C@H]2CCC3)n1` [Example 24, 4-chloro-5-(difluoromethyl)-6-((6aR,7S,10R)-1-fluoro-13-(((2R,7aS)-2-fluorotetrahydro-1H-pyrrolizin-7a(5H)-yl)methoxy)-5,6,6a,7,8,9,10,11-octahydro-4H-3,11a,12,14,15-pentaaza-7,10-methanocyclohepta[4,5]cycloocta[1,2,3-de]naphthalen-2-yl)pyridin-2-amine] the same measures were more than 100 nM and 11 nM.
The molecule `N#Cc1c(N)sc2cccc(-c3c(F)c4c5c(nc(OC[C@@]67CCCN6C[C@H](F)C7)nc5c3F)N3C[C@H]5CC[C@H](N5)[C@H]3CC4)c12` [Example 25, 2-amino-4-((1S,4R,14aR)-10,12-difluoro-8-(((2R,7aS)-2-fluorotetrahydro-1H-pyrrolizin-7a(5H)-yl)methoxy)-1,2,3,4,5,13,14,14a-octahydro-1,4-epiminoazepino[1′,2′:1,7]azepino[2,3,4-de]quinazolin-11-yl)benzo[b]thiophene-3-carbonitrile] came in with an EC50 with GP2D (KRAS G12D) cells of 1.6 nM. The same molecule gave an IC50 on GDP-loaded KRAS G12D of 0.12 nM.
The matching figures for `C#Cc1c(F)ccc2cc(N)nc(-c3nc4c5c(nc(OC[C@@]67CCCN6C[C@H](F)C7)nc5c3F)N3C[C@H]5CC[C@H](N5)[C@H]3CCC4)c12` [Example 26, 8-ethynyl-7-fluoro-1-((6aR,7S,10R)-1-fluoro-13-(((2R,7aS)-2-fluorotetrahydro-1H-pyrrolizin-7a(5H)-yl)methoxy)-5,6,6a,7,8,9,10,11-octahydro-4H-3,11a,12,14,15-pentaaza-7,10-methanocyclohepta[4,5]cycloocta[1,2,3-de]naphthalen-2-yl)isoquinolin-3-amine]: 4.1 nM and 0.4 nM.
Consider `C#Cc1c(F)ccc2cc(N)nc(-c3c(F)c4c5c(nc(OC[C@@]67CCCN6C[C@H](F)C7)nc5c3F)N3C[C@H]5CC[C@H](N5)[C@H]3CCC4)c12` [Example 61, (S)-1-((1S,4R,15aR)-10,12-difluoro-8-(((2R,7aS)-2-fluorotetrahydro-1H-pyrrolizin-7a(5H)-yl)methoxy)-2,3,4,5,13,14,15,15a-octahydro-1H-1,4-epiminoazepino[1′,2′:1,8]azocino[2,3,4-de]quinazolin-11-yl)-8-ethynyl-7-fluoroisoquinolin-3-amine], for which it took 0.88 nM to reach a half-maximal effect in the assay with GP2D (KRAS G12D) cells (EC50). At GDP-loaded KRAS G12D, this molecule yielded an IC50 of 0.02 nM.
